Test results published in ChEMBL document CHEMBL2424536, “Withanolides isolated from Withania somnifera with -glucosidase inhibition” (Med Chem Res, 2013).

Tests used:
[1] = system: Saccharomyces sp.; assay: Inhibition of Saccharomyces sp. alpha-glucosidase using p-nitrophenyl a-D-glucopyranoside as substrate at 100 ug/ml by spectrophotometric analysis
[2] = (§1) Inhibition of Saccharomyces sp. alpha-glucosidase using p-nitrophenyl a-D-glucopyranoside as substrate by spectrophotometric analysis
[3] = system: Saccharomyces sp.; assay: as §1

Compound: CC1=C(C)C(=O)O[C@@H]([C@](C)(O)[C@H]2CC[C@H]3[C@@H]4CC=C5CC=CC(=O)[C@]5(C)[C@H]4CC[C@]23C)C1
- Imax [1]: 69.7%
- IC50 [2]: 85.8 µg/mL
- inhibition [3]: Dose-dependent effect

Compound: OC[C@H]1NC[C@H](O)[C@@H](O)[C@@H]1O [DUVOGLUSTAT]
- IC50 ([2]; read-out: IC50): 422 µM

Compound: CC1=C(C)C(=O)O[C@@H]([C@](C)(O)C2=CC[C@@]3(O)[C@@H]4CC=C5CC=CC(=O)[C@]5(C)[C@H]4CC[C@]23C)C1
- Imax [1]: 96.1%
- IC50 [2]: 38.2 µg/mL
- inhibition [3]: Dose-dependent effect

Compound: CC1=C(C)C(=O)O[C@@H]([C@](C)(O)[C@H]2CC[C@@H]3[C@]2(C)CC[C@H]2[C@@]3(O)[C@H]3O[C@H]3[C@@]3(O)CC=CC(=O)[C@]23C)C1
- Imax [1]: 94.3%
- IC50 [2]: 40.65 µg/mL
- inhibition [3]: Dose-dependent effect
